Columns and labels:
[1] = system: MDA-MB-453/Lap cells; experiment: Cell viability (MTT), sensitization to lapatinib, MDA-MB-453/Lap; format: cell-based, human; details: 24 h; for sensitization to Lapatinib treatments: Protac 10 µM, lapatinib 3-50 µM, shift of dose response curve vs vehicle; for change in viability: lapatinib 10 µM in the presence of Protac 10 µM; for CC50 vehicle /CC50 Protac ratio: lapatinib CC50 without vs with Protac 10 µM
Procedure: (§1) MDA-MB-231 cells were grown in DMEM media (Sigma) supplemented with 10% fetal bovine serum (FBS) (Sigma), 2 mM L-glutamine (Thermo Fisher) and 100 U/mL penicillin/ 100 ug/mL streptomycin (Thermo Fisher). MDA-MB-453 cells were grown in DMEM/F12 media (Gibco) supplemented with 10% fetal bovine serum (FBS) (Sigma), 2 mM L-glutamine (Thermo Fisher), 2.5 ug/mL amphotericin B and 100 U/mL penicillin/ 100 ug/mL streptomycin (Thermo Fisher). BT-474 cells were grown in DMEM/F12 media (Gibco) supplemented with 10% fetal bovine serum (FBS) (Sigma), 2 mM L-glutamine (Thermo Fisher), 10 ug/mL insulin, 2.5 ug/mL amphotericin B and 100 U/mL penicillin/ 100 ug/mL streptomycin (Thermo Fisher).
(§2) For cell proliferation assays, cells were plated at a density of 10,000 cells/well in a 96-well plate. […] MTT reagent was added to cell culture media. After 3 h incubation, culture medium was replaced by DMSO. MTT formazan crystals were solubilized in DMSO using a plate agitator for 30 min prior to reading absorbance at 570 nm with a SYNERGY H1 microplate reader (BioTek

[2] = system: MDA-MB-453/WT cells; experiment: Cell viability (MTT), sensitization to lapatinib, MDA-MB-453/WT; format: cell-based, human; details: 24 h; for sensitization to Lapatinib treatments: Protac 10 µM, lapatinib 3-50 µM, shift of dose response curve vs vehicle; for change in viability: lapatinib 10 µM in the presence of Protac 10 µM; for CC50 vehicle /CC50 Protac ratio: lapatinib CC50 without vs with Protac 10 µM
Procedure: as §1, §2

[3] = system: BT-474/WT cells; experiment: Cell viability (MTT), sensitization to lapatinib, BT-474/WT; format: cell-based, human; details: 24 h; for sensitization to Lapatinib treatments: Protac 20 µM, lapatinib 0.63-30 µM; for CC50 vehicle /CC50 Protac ratio: lapatinib CC50 without vs with Protac 20 µM
Procedure: as §1, §2

[4] = biological target: T1, CERT (Homo sapiens, UniProt Q9Y5P4); experiment: Degradation of CERT in cultured human breast cancer cells (SDS-PAGE and immunoblot); format: cell-based; details: for degradation of CERT / levels of CERT in cells: 24 h; for degradation of CERT: immunoblot vs DMSO
T1 construct: endogenous in cells; host or cells: MDA-MB-231, MDA-MB-453 (WT and lapatinib-resistant), BT-474 (WT and lapatinib-resistant)
T1 sequence (Q9Y5P4 1-624): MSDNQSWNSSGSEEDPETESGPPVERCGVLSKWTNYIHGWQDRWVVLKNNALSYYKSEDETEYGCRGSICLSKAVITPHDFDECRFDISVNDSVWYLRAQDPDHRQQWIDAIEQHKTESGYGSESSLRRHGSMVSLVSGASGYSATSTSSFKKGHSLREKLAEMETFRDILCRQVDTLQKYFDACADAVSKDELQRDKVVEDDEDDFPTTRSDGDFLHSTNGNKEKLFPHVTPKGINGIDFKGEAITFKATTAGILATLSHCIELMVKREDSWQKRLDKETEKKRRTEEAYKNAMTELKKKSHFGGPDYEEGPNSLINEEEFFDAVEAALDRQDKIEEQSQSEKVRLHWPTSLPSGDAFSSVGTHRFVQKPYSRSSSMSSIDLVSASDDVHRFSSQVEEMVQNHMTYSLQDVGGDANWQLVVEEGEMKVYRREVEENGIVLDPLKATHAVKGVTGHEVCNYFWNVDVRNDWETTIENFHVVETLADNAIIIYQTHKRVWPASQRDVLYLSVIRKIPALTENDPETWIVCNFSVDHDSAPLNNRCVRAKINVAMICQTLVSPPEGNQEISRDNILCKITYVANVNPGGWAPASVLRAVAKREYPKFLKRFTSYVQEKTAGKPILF
Procedure: as §1
Then, medium was removed and cells were washed with PBS, trypsinized and the pellets were disrupted by probe sonication in a 0.25 M solution of Saccharose. An aliquot was used for protein quantification and the same amount of protein per treatment was treated with laemli buffer (95 °C/5 min). The protein extracts were analyzed by SDS-PAGE electrophoresis followed by immunoblot using the following antibodies: CERT1, Abcam Ab72536; USP14, Cell signaling CS-11931; Actin, Abcam Ab5694.
Chimeras were tested in different types of breast cancer cell lines: • MDA-MB-231, lacking the estrogen receptor (ER), progesterone receptor (PR) and human epidermal growth factor receptor-2 (HER2).

[5] = system: BT-474/Lap cells; experiment: Cell viability (MTT), sensitization to lapatinib, BT-474/Lap; format: cell-based, human; details: 24 h; for sensitization to Lapatinib treatments: Protac 20 µM, lapatinib 0.63-30 µM, shift of dose response curve vs vehicle; for CC50 vehicle /CC50 Protac ratio: lapatinib CC50 without vs with Protac 20 µM
Procedure: as §1, §2

[6] = BT-474 (WT) cells, 10 µM, 20 µM per Figure 1 legend
[7] = BT-474/Lap (lapatinib resistant) cells, 1, 5, 10, 20, 30 and 40 µM, immunoblot vs DMSO (Figure 6)
[8] = MDA-MB-453/Lap (lapatinib resistant) cells, 1, 5, 10, 20, 30 and 40 µM, immunoblot vs DMSO (Figure 4)
[9] = MDA-MB-231 cells, 10 µM, time course 2, 4, 6, 8, 16 and 24 h

In the case of `Cc1cc(C(=O)N2CCC(COC(=O)NCCOCCn3cc(CCCCCCCCC(=O)N[C@@H](CO)C[C@H](O)c4ccccc4)nn3)CC2)c(C)n1-c1ccc(F)cc1` [RBM3-413, (1-(1-(4-Fluorophenyl)-2,5-dimethyl-1H-pyrrole-3-carbonyl)piperidin-4-yl)methyl (2-(2-(4-(9-(((2R,4S)-1,4-dihydroxy-4-phenylbutan-2-yl)amino)-9-oxononyl)-1H-1,2,3-triazol-1-yl)ethoxy)ethyl)carbamate], the “sensitization to Lapatinib treatments” value [1] is reported as “potent sensitization”, the change in viability [1] is reported as -38% and the “CC50 vehicle /CC50 Protac ratio” value [1] is reported as 2.33. For the same compound, the “sensitization to Lapatinib treatments” value [2] was “Sensitization was also observed, yet mildly”, the change in viability [2] was -38% and the “CC50 vehicle /CC50 Protac ratio” value [2] was 1.98. The “sensitization to Lapatinib treatments” value [3] was “sensitized cells to lapatinib treatments”, the “CC50 vehicle /CC50 Protac ratio” value [3] was 3.84 and the “degradation of CERT” value [4, 6] was “induced the degradation of CERT”. The “levels of CERT in cells” value [4, 7] was “treatments have reduced the levels of CERT in cells”, the “degradation of CERT” value ([4]; MDA-MB-231 cells, 10 µM) was “induced the degradation of CERT” and the “degradation of CERT” value ([4]; MDA-MB-453 (WT) cells, 10 µM) was “induced the degradation of CERT”. For the same compound, the “levels of CERT in cells” value [4, 8] was “treatments have reduced the levels of CERT in cells”, the “sensitization to Lapatinib treatments” value [5] was “potent sensitization” and the “CC50 vehicle /CC50 Protac ratio” value [5] was 5.56.

With `Cc1cc(C(=O)N2CCC(Cn3cc(CCCCCCCCC(=O)N[C@@H](CO)C[C@H](O)c4ccccc4)nn3)CC2)c(C)n1-c1ccc(F)cc1` [RBM3-395, N-((2R,4S)-1,4-Dihydroxy-4-phenylbutan-2-yl)-9-(1-((1-(1-(4-fluorophenyl)-2,5-dimethyl-1H-pyrrole-3-carbonyl)piperidin-4-yl)methyl)-1H-1,2,3-triazol-4-yl)nonanamide] the “sensitization to Lapatinib treatments” value [1] was “potent sensitization”, the change in viability [1] was -38% and the “CC50 vehicle /CC50 Protac ratio” value [1] was 2.05. For the same compound, the “sensitization to Lapatinib treatments” value [2] was “Sensitization was also observed, yet mildly”, the change in viability [2] was -38% and the “CC50 vehicle /CC50 Protac ratio” value [2] was 2.27. The “sensitization to Lapatinib treatments” value [3] was “sensitized cells to lapatinib treatments”, the “CC50 vehicle /CC50 Protac ratio” value [3] was 6.22 and the “degradation of CERT” value [4, 6] was “induced the degradation of CERT”. The “levels of CERT in cells” value [4, 7] was “treatments have reduced the levels of CERT in cells”, the “degradation of CERT” value ([4]; MDA-MB-231 cells, 10 µM) was “induced the degradation of CERT” and the “degradation of CERT” value ([4]; MDA-MB-453 (WT) cells, 10 µM) was “induced the degradation of CERT”. For the same compound, the “levels of CERT in cells” value [4, 8] was “treatments have reduced the levels of CERT in cells”, the “sensitization to Lapatinib treatments” value [5] was “potent sensitization” and the “CC50 vehicle /CC50 Protac ratio” value [5] was 5.23.

For `Cc1cc(C(=O)N2CCC(COC(=O)NCCOCCOCCn3cc(CCCCCCCCC(=O)N[C@@H](CO)C[C@H](O)c4ccccc4)nn3)CC2)c(C)n1-c1ccc(F)cc1` [RBM3-386, (1-(1-(4-Fluorophenyl)-2,5-dimethyl-1H-pyrrole-3-carbonyl)piperidin-4-yl)methyl (2-(2-(2-(4-(9-(((2R,4S)-1,4-dihydroxy-4-phenylbutan-2-yl)amino)-9-oxononyl)-1H-1,2,3-triazol-1-yl)ethoxy)ethoxy)ethyl) carbamate], the “degradation of CERT” value [4, 6] was “induced the degradation of CERT”, the “levels of CERT in cells” value [4, 7] was “treatments have reduced the levels of CERT in cells” and the “degradation of CERT” value ([4]; MDA-MB-231 cells, 10 µM) was “induced the degradation of CERT”. The “degradation of CERT” value ([4]; MDA-MB-453 (WT) cells, 10 µM) was “induced the degradation of CERT” and the “levels of CERT in cells” value [4, 8] was “treatments have reduced the levels of CERT in cells”.

In the case of `Cc1cc(C(=O)N2CCC(COC(=O)NCCOCCOCCOCCn3cc(CCCCCCCCC(=O)N[C@@H](CO)C[C@H](O)c4ccccc4)nn3)CC2)c(C)n1-c1ccc(F)cc1` [RBM3-368], the “degradation of CERT” value [4, 6] is reported as “induced the degradation of CERT”, the “levels of CERT in cells” value [4, 7] is reported as “treatments have reduced the levels of CERT in cells” and the “degradation of CERT” value ([4]; MDA-MB-231 cells, 10 µM) is reported as “induced the degradation of CERT”. For the same compound, the “time of CERT degradation effect” value [4, 9] was 16 to 24 h, the “time of maximum degradation” value [4, 9] was 24 h and the “degradation of CERT” value ([4]; MDA-MB-453 (WT) cells, 10 µM) was “induced the degradation of CERT”. For the same compound, the “levels of CERT in cells” value [4, 8] was “treatments have reduced the levels of CERT in cells”.

`Cc1cc(C(=O)N2CCC(COC(=O)NCCOCCOCCOCCOCCOCCn3cc(CCCCCCCCC(=O)N[C@@H](CO)C[C@H](O)c4ccccc4)nn3)CC2)c(C)n1-c1ccc(F)cc1` [RBM3-419, (1-(1-(4-Fluorophenyl)-2,5-dimethyl-1H-pyrrole-3-carbonyl)piperidin-4-yl)methyl (17-(4-(9-(((2R,4S)-1,4-dihydroxy-4-phenylbutan-2-yl)amino)-9-oxononyl)-1H-1,2,3-triazol-1-yl)-3,6,9,12,15-pentaoxaheptadecyl)carbamate] was tested, and the “degradation of CERT” value [4, 6] was “induced the degradation of CERT”, the “levels of CERT in cells” value [4, 7] was “treatments have reduced the levels of CERT in cells” and the “degradation of CERT” value ([4]; MDA-MB-231 cells, 10 µM) was “induced the degradation of CERT”. The “degradation of CERT” value ([4]; MDA-MB-453 (WT) cells, 10 µM) was “induced the degradation of CERT” and the “levels of CERT in cells” value [4, 8] was “treatments have reduced the levels of CERT in cells”.
